In US7824866B2, “Ligand for G-protein coupled receptor GPR72 and uses thereof” (Euroscreen S.A., priority 2006, dated 2010):

These molecules were tested against T1, mouse GPR72 (Mus musculus, UniProt P30731) (assay: aequorin intracellular calcium release assay, CHO-K1 cells expressing mouse GPR72). Conditions: CHO-K1 cells coexpressing mouse GPR72 and apoaequorin; FIG. 6.
T1 construct: expressed in transfected cells; host or cells: CHO-K1 cells coexpressing apoaequorin
Format: cell-based
Method: The aequorin assay takes advantage of the responsiveness of mitochondrial apoaequorin to intracellular calcium release induced by the activation of GPCRs (Stables et al., 1997, Anal. Biochem. 252:115-126; Detheux et al., 2000, J. Exp. Med., 192 1501-1508; both of which are incorporated herein by reference). Briefly, GPR72 polypeptide-expressing clones are transfected to coexpress mitochondrial apoaequorin and Gα16. Cells are incubated with 5 μM Coelenterazine H (Molecular Probes) for 4 hours at room temperature, washed in DMEM-F12 culture medium and resuspended at a concentration of 0.5×10^6 cells/ml. Cells are then mixed with test agonist molecules and light emission by the aequorin is recorded with a luminometer for 30 sec. Results are expressed as Relative Light Units (RLU). […]
GPR72 expressing clones have been obtained by transfection of CHO-K1 cells to coexpressing mitochondrial apoaequorin and […], limiting dilution and selection by RT-PCR. […] A functional assay based on the luminescence of mitochondrial aequorin intracellular Ca^2+ release (Stables et al., 1997, Anal. Biochem. 252:115-126; incorporated herein by reference) was performed as described (Detheux et al., 2000, J. Exp. Med., 192 1501-1508; incorporated herein by reference). […] Results are expressed as Relative Light Units (RLU). […]

T1 sequence (P30731 18-423): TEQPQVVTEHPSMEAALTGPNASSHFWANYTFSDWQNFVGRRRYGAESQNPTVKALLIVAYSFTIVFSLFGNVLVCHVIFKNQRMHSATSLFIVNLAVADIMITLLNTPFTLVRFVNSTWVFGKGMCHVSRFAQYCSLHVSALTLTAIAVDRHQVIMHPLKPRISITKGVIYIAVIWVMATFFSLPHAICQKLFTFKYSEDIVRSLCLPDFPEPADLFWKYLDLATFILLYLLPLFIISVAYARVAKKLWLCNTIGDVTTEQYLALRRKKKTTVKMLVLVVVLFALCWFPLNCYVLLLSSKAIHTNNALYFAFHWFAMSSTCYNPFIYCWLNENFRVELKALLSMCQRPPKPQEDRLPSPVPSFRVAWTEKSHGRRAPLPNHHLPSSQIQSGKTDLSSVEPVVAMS

Row | Compound | concentration at which the mouse GPR72 is specifically activated
1 | CCCCC/C=C\C/C=C\C/C=C\C/C=C\CCCC(=O)O [arachidonic acid, 5,8,11,14-all-cis-eicosatetraenoic acid] | around 5 micromolar

Each molecule was assayed against T2, human GPR72 (Homo sapiens, UniProt Q9NYM4) (assay: Aequorin-based functional assay: intracellular calcium release (luminescence) in CHO-K1 cells stably expressing human GPR72, mitochondrial apoaequorin and Galpha16). Conditions: not given.
Format: cell-based
Set-up: expressed in transfected cells

T2 sequence (Q9NYM4 17-423): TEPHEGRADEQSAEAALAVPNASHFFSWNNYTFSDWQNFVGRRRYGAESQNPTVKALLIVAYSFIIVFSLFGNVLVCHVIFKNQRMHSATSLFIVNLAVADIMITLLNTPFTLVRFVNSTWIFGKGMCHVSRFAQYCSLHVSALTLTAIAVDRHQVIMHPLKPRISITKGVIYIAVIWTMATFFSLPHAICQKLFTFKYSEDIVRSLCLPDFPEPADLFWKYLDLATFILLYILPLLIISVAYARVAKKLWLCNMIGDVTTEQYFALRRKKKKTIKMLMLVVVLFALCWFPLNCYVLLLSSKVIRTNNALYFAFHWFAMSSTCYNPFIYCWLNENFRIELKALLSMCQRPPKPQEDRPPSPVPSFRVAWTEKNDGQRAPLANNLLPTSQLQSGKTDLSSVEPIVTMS

Row | Compound | EC50
2 | CCCCC/C=C\C/C=C\C/C=C\C/C=C\CCCC(=O)O [Eicosa-5Z,8Z,11Z,14Z-tetraenoic acid] | 5 µM
3 | CC/C=C\C/C=C\C/C=C\CCCCCCCC(=O)O [Octadeca-9Z,12Z,15Z-trienoic acid] | 4.7 µM
4 | CCCCC/C=C\C/C=C\C/C=C\C/C=C\CCCC(=O)NCC(=O)O [N-arachidonoyl-glycine] | 3.5 µM

Same assay, conditions: Figure 8, SAR of arachidonic acid on human GPR72 activation; CHO-K1 cells, aequorin; read-out: GPR72 EC50

Row | Compound | EC50
5 | CCCCC/C=C\C/C=C\C/C=C\C/C=C\CCCC(=O)NCCCC(=O)O [N-arachidonoyl-γ-aminobutyric acid] | 4.3 µM
6 | CC1=C(/C=C/C(C)=C/C=C/C(C)=C/C(=O)O)C(C)(C)CCC1 [All-trans-retinoic acid] | 86 µM
7 | CCCCC/C=C\C/C=C\C/C=C\C/C=C\CCCC(=O)NCCS(=O)(=O)O [N-arachidonoyl-L-taurine] | 1.3 µM
8 | CCCCC/C=C\C/C=C\C/C=C\C/C=C\CCCC(=O)N[C@@H](CO)C(=O)O [N-arachidonoyl-L-serine] | 3 µM
9 | CCCCC/C=C\C/C=C\C/C=C\C/C=C\CCCC(=O)N[C@@H](C)C(=O)O [N-arachidonoyl-L-alanine] | 2.9 µM
10 | CC1=C(/C=C/C(C)=C\C=C\C(C)=C\C(=O)O)C(C)(C)CCC1 [9-cis-Retinoic acid] | 0.4 µM
11 | CCCCC/C=C\C/C=C\C/C=C\C/C=C\CCCC(=O)NCC(O)CC(=O)O (stereo not drawn) [N-arachidonoyl-3-hydroxy-γ-aminobutyric acid] | 0.7 µM

Continued, values first:

Row | EC50 | Compound
12 | 44 µM | CCCCC/C=C\C/C=C\C/C=C\CCCCCCC(=O)O [Eicosa-8Z,11Z,14Z-trienoic acid]
13 | 17.9 µM | CCCCC/C=C\C/C=C\CCCCCCCCCC(=O)O [Eicosa-11Z,14Z-dienoic acid]
14 | 0.8 µM | CCCCC/C=C\C/C=C\C/C=C\CCCCC(=O)O [Octadeca-6Z,9Z,12Z-trienoic acid]
15 | 3.3 µM | CC/C=C\C/C=C\C/C=C\C/C=C\C/C=C\CCCC(=O)O [Eicosa-5Z,8Z,11Z,14Z,17Z-pentaenoic acid]
16 | 2 µM | CC/C=C\C/C=C\C/C=C\C/C=C\C/C=C\C/C=C\CCC(=O)O [Docosa-4Z,7Z,10Z,13Z,16Z,19Z-hexaenoic acid]
17 | 6 µM | CC/C=C\C/C=C\C/C=C\C/C=C\CCCCCCC(=O)O [Eicosa-8Z,11Z,14Z,17Z-tetraenoic acid]
18 | 6.3 µM | CCCCCCCC/C=C\C/C=C\C/C=C\CCCC(=O)O [Eicosa-5Z,8Z,11Z-trienoic acid]
19 | 9.3 µM | CC/C=C\C/C=C\C/C=C\C/C=C\C/C=C\CCCCCC(=O)O [Docosa-7Z,10Z,13Z,16Z,19Z-pentaenoic acid]
20 | 25 µM | CC/C=C\C/C=C\C/C=C\CCCCCCCCCCCC(=O)O [Docosa-13Z,16Z,19Z-trienoic acid]

Same assay, conditions: Figure 9, additional PUFAs; CHO-K1 cells stably expressing human GPR72, aequorin; read-out: human GPR72 receptor EC50

Row | EC50 | Compound
21 | 25 µM | CC/C=C\C/C=C\C/C=C\CCCCCCCCCC(=O)O [Eicosa-11Z,14Z,17Z-trienoic acid]
22 | 12 µM | CCCCCCCCC#CCC#CCC#CCCCC(=O)O [Eicosa-5,8,11-triynoic acid]
23 | 74 µM | CC/C=C\C/C=C\C/C=C\C/C=C\CCCCC(=O)O [Octadeca-6Z,9Z,12Z,15Z-tetraenoic acid]
24 | 27 µM | CCCCCC#CCC#CCC#CCC#CCCCC(=O)O [Eicosa-5,8,11,14-tetraynoic acid]
25 | 10 µM | CCCCC/C=C\C/C=C\C/C=C\C/C=C\CCCCCC(=O)O [Docosa-7Z,10Z,13Z,16Z-tetraenoic acid]
26 | 16 µM | CC1=C(/C=C/C(C)=C/C=C/C(C)=C\C(=O)O)C(C)(C)CCC1 [13-cis-Retinoic acid]

Same assay, conditions: Figure 10, thiazolidinediones; CHO-K1 cells stably expressing human GPR72, aequorin; read-out: human GPR72 receptor EC50

Row | EC50 | Compound
27 | 35 µM | CC1(COc2ccc(CC3SC(=O)NC3=O)cc2)CCCCC1 (stereo not drawn) [Ciglitazone]
28 | 25 µM | O=C1NC(=O)C(Cc2ccc3cc(OCc4ccccc4F)ccc3c2)S1 (stereo not drawn) [MCC-555]

Each molecule was assayed against T2, human GPR72 (assay: aequorin intracellular calcium release assay, CHO-K1 cells expressing human GPR72). Conditions: CHO-K1 cells coexpressing human GPR72 and apoaequorin; mock-transfected cells as control; FIG. 5.
Format: cell-based
Set-up: expressed in transfected cells; host or cells: CHO-K1 cells coexpressing mitochondrial apoaequorin and a G alpha subunit (Gα16)
Method: The aequorin assay takes advantage of the responsiveness of mitochondrial apoaequorin to intracellular calcium release induced by the activation of GPCRs (Stables et al., 1997, Anal. Biochem. 252:115-126; Detheux et al., 2000, J. Exp. Med., 192 1501-1508; both of which are incorporated herein by reference). Briefly, GPR72 polypeptide-expressing clones are transfected to coexpress mitochondrial apoaequorin and Gα16. Cells are incubated with 5 μM Coelenterazine H (Molecular Probes) for 4 hours at room temperature, washed in DMEM-F12 culture medium and resuspended at a concentration of 0.5×10^6 cells/ml. Cells are then mixed with test agonist molecules and light emission by the aequorin is recorded with a luminometer for 30 sec. Results are expressed as Relative Light Units (RLU). Controls include assays using […] not expressing GPR72 polypeptide (mock transfected), in order to exclude possible non-specific effects of the candidate compound.
GPR72 expressing clones have been obtained by transfection of CHO-K1 cells to coexpressing mitochondrial apoaequorin and […], limiting dilution and selection by RT-PCR. Positive clones were used for biological extract library screening with porcine spleen extracts prepared as described above. A functional assay based on the luminescence of mitochondrial aequorin intracellular Ca^2+ release (Stables et al., 1997, Anal. Biochem. 252:115-126; incorporated herein by reference) was performed as described (Detheux et al., 2000, J. Exp. Med., 192 1501-1508; incorporated herein by reference). Briefly, cells were collected from plates in PBS containing 5 mM EDTA, pelleted and resuspended at 5×10^6 cells/ml in DMEM-F12 medium. Cells were incubated with 5 μM Coelenterazine H (Molecular Probes) for 4 hours at room temperature. Cells were then washed in DMEM-F12 medium and resuspended at a concentration of 0.5×10^6 cells/ml. Cells were then mixed with test agonist peptides or plates containing tissue extracts and the light emission was recorded for 30 sec using a Microlumat luminometer (Perkin Elmer). Results are expressed as Relative Light Units (RLU).
After being identified from active porcine […] fraction, ability of arachidonic acid to trigger intracellular calcium release was tested on CHO-K1 cell lines coexpressing the human or the mouse GPR72 receptor and apoaequorin. We have used the aequorin assay as previously described in Detheux et al. (2000) J exp Med. 192, 1501-1508. […] Arachidonic acid was also able to activate specifically the mouse GPR72 at concentration around 5 micromolar (FIG. 6).
PUFAs were tested on CHO-K1 cells stably expressing the human GPR72 for their ability to trigger intracellular calcium using aequorin. Obtained EC50 are in the 1-20 μM range (FIG. 7).

Row | Compound | concentration at which the human GPR72 is specifically activated
29 | CCCCC/C=C\C/C=C\C/C=C\C/C=C\CCCC(=O)O [arachidonic acid, 5,8,11,14-all-cis-eicosatetraenoic acid] | around 5 micromolar

Same assay, conditions: human GPR72 receptor; FIG. 8

Row | Compound | activity on GPR72 (structure-activity relationship)
30 | CCCCC/C=C\C/C=C\C/C=C\C/C=C\CCCC(=O)OC [arachidonic acid methyl ester] | not active
31 | CCCCC/C=C\C/C=C\C/C=C\C/C=C\CCCC(=O)NCCS(=O)(=O)O [N-arachidonoyl-L-taurine] | active
32 | CCCCC/C=C\C/C=C\C/C=C\C/C=C\CCCC(=O)O [arachidonic acid, 5,8,11,14-all-cis-eicosatetraenoic acid] | active
33 | CCCCC/C=C\C/C=C\C/C=C\C/C=C\CCCC(=O)NCC(=O)O [N-arachidonoyl-glycine] | active
